Reference: patent publication US6326395A, “Antifungal activity of dicationic molecules” (priority 1999, dated 2001)
Converted amounts (≈) assume the structure as drawn. Counter-ions that a name gives are not always drawn. Like-named read-outs stand apart in the source and are kept apart here.

What was measured:
Candida albicans = assay: in vitro antifungal susceptibility testing (MIC, MFC; broth macrodilution), Tables 1-7; type: cell-based; settings: for MIC: read-out: MIC80 (Minimum inhibitory concentration 80%); for MFC: read-out: MFC (Minimum fungicidal concentration)
Text: (§1) The fungi that were employed included two reference strains, C. neoformans var. neoformans H99 and C. albicans A39 and the following clinical isolates: (1) two strains of fluconazole-resistant C. neoformans var. neoformans (135.95 and 114.96); (2) two strains of C. neoformans var. gattii (119.95 and 114.95); (3) two strains of fluconazole-resistant C. albicans (102.96 and 103.96); and (4) one strain each of Torulopsis glabrata (142.91), Candida parapsilosis (111.96), Candida krusei (132.91), C. tropicalis (110.96), Candida lusitaniae (111.92), Fusarium solani (152.89), Aspergillus fumigatus (168.95), and Aspergillus flavus (112.96). Antifungal susceptibility testing was performed using an RPMI-1640 medium (Sigma Chemical Co., St. Louis, Mo.) with glutamine, without sodium bicarbonate, and buffered at pH 7.0 with 0.165 M morpholine-propanesulfonic acid (MOPS).
(§2) In vitro susceptibility testing in the form of Minimum Inhibitory Concentration (MIC) experiments were performed using the broth macrodilution method according to the recommendations of the National Committee for Clinical Laboratory Standards (see 1995 manual). The only difference compared to the standardized procedure was the choice of drug dilutions ranging from 100 to 0.09 μg/ml. Briefly, this procedure specifies an inoculum grown at 35° C. and adjusted to a concentration of 0.5-2.5×10^3 CFU/ml with an incubation of the test performed at 35° C. and reading at 48 hours for all yeasts except for C. neoformans which is interpreted at 72 hr.
(§3) Minimum Fungicidal Concentration (MFC) experiments were adapted from a method by McGinnis (McGinnis, M. R., (1980) "Susceptibility testing and bioassay procedure", p. 431, Academic Press, Inc., New York). Briefly, 10 μl aliquots from tubes with growth inhibition were plated onto Sabouraud agar plates.
(§4) The fungi that were employed included two quality control reference strains, C. neoformans var. neoformansH99 and C. albicans A39 and the following clinical isolates: (1) four strains of C. neoformans var. neoformans (167.95; 135.95; 114.96; and 133.95) of which three were fluconazole-resistant>64 μg/ml (135.95; 114.96; and 133.95); (2) two strains of C. neoformans var. gattii (119.95 and 114.95); (3) two strains of fluconazole-resistant>64 μg/ml C. albicans (102.96 and 103.96); and (4) one strain each of C. glabrata (142.91), Candida parapsilosis (111.96), Candida krusei (132.91), C. tropicalis (110.96), Candida lusitaniae (111.92), Fusarium solani (152.89), Aspergillus fumigatus (168.95), Rhizopus arrhizus (117.89), Paecilomyces lilacinus (137.90), and Aspergillus flavus (112.96). Antifungal susceptibility testing was performed using an RPMI-1640 medium (Sigma Chemical Co., St. Louis, Mo.) with glutamine, without sodium bicarbonate, and buffered at pH 7.0 with 0.165 M morpholinepropanesulfonic acid (MOPS).
as §3, with “p.431,” for “p. 431,”

Cryptococcus neoformans = assay: as above; type: cell-based; settings: for MIC: read-out: MIC80 (Minimum inhibitory concentration 80%); for MFC: read-out: MFC (Minimum fungicidal concentration)
Text: as §1, §2, §3, §4
as §3, with “p.431,” for “p. 431,”

[1] = Tables 2-7, three or fewer colonies
[2] = Table 1, three or fewer colonies

SMILES	MIC (Candida albicans; 35° C., reading at 48 hours) [µg/mL]	MIC (Cryptococcus neoformans; 35° C., 72 hr) [µg/mL]	MFC (Candida albicans; three or fewer colonies) [µg/mL]	MFC (Cryptococcus neoformans; [1]) [µg/mL]	MFC (Cryptococcus neoformans; [2]) [µg/mL]	MIC (Candida albicans; 48 h) [µg/mL]	MFC (Candida albicans) [µg/mL]	MIC (Cryptococcus neoformans; 72 h) [µg/mL]	MFC (Minimum fungicidal concentration) (Cryptococcus neoformans; [1]) [µg/mL]	MFC (Cryptococcus neoformans) [µg/mL]
COc1cc(C(N)=NO)ccc1OCCCOc1ccc(C(N)=NO)cc1OC [Compound 6]	> 100	> 100								
N=C(N)c1ccc(OCCCCCOc2ccc(C(=N)N)cc2Cl)c(Cl)c1 [Compound 17]	3.12 (≈ 7.62 µM)	1.56 (≈ 3.81 µM)	6.25 (≈ 15.3 µM)		3.12 (≈ 7.62 µM)					
N=C(N)c1ccc(NCCCNc2ccc(C(=N)N)cc2)cc1 [Compound 8]	0.19 (≈ 0.612 µM)	1.56 (≈ 5.03 µM)	0.39 (≈ 1.26 µM)		6.25 (≈ 20.1 µM)					
N=C(N)c1ccc(OCCOc2ccc(C(=N)N)cc2)cc1 [Compound 1]	3.12 (≈ 10.5 µM)	> 100	100 (≈ 335 µM)							
N=C(N)c1cccc(OCCCCOc2cccc(C(=N)N)c2)c1 [Compound 16]	12.5 (≈ 38.3 µM)	25 (≈ 76.6 µM)	25 (≈ 76.6 µM)		25 (≈ 76.6 µM)					
COc1cc(C(=N)N)ccc1OCCCCOc1ccc(C(=N)N)cc1OC [Compound 12]	> 100	50 (≈ 129 µM)	> 100		> 100					
NC(=NO)c1ccc(OCCCOc2ccc(C(N)=NO)cc2)cc1 [Compound 5]	> 100	> 100								
N=C(N)c1ccc2nc(C=Cc3nc4ccc(C(=N)N)cc4[nH]3)[nH]c2c1 [Compound 32]	6.25 (≈ 18.1 µM)	1.56 (≈ 4.53 µM)	12.5 (≈ 36.3 µM)	3.12 (≈ 9.06 µM)						
N=C(N)c1ccc2nc(CCc3nc4ccc(C(=N)N)cc4[nH]3)[nH]c2c1 [Compound 30]	12.5 (≈ 36.1 µM)	6.25 (≈ 18 µM)	50 (≈ 144 µM)	25 (≈ 72.2 µM)						
N=C(N)c1ccc(OCCCCCOc2ccc(C(=N)N)cc2)cc1 [Pentamidine, reference compound]						0.78 (≈ 2.29 µM)	1.56 (≈ 4.58 µM)	3.12 (≈ 9.16 µM)	6.25 (≈ 18.4 µM)	6.25 (≈ 18.4 µM)
N=C(N)c1ccc(OCCCCOc2ccc(C(=N)N)cc2)cc1 [Compound 11]	25 (≈ 76.6 µM)	3.12 (≈ 9.56 µM)	50 (≈ 153 µM)		6.25 (≈ 19.1 µM)					
N=C(N)c1cccc(OCCCOc2cccc(C(=N)N)c2)c1 [Compound 7]	> 100		> 100							

Now from value to compound, other results behind:

MIC (Candida albicans; 35° C., reading at 48 hours) [µg/mL]	MIC (Cryptococcus neoformans; 35° C., 72 hr) [µg/mL]	SMILES	MFC (Candida albicans; three or fewer colonies) [µg/mL]	MFC (Cryptococcus neoformans; [1]) [µg/mL]	MFC (Cryptococcus neoformans; [2]) [µg/mL]	MIC (Candida albicans; 48 h) [µg/mL]	MFC (Candida albicans) [µg/mL]	MIC (Cryptococcus neoformans; 72 h) [µg/mL]	MFC (Minimum fungicidal concentration) (Cryptococcus neoformans; [1]) [µg/mL]	MFC (Cryptococcus neoformans) [µg/mL]
100 (≈ 257 µM)	6.25 (≈ 16.1 µM)	CC(C)NC(=N)c1cccc(-c2ccc(-c3cccc(C(=N)NC(C)C)c3)o2)c1 [Compound 40]	> 100	6.25 (≈ 16.1 µM)						
> 100	0.39 (≈ 0.989 µM)	N=C(N)c1ccc2nc(-c3ccc(-c4nc5ccc(C(=N)N)cc5[nH]4)cc3)[nH]c2c1 [Compound 47]		0.39 (≈ 0.989 µM)						
1.56 (≈ 3.29 µM)	0.78 (≈ 1.64 µM)	c1cc2nc(-c3ccc(-c4nc5ccc(C6=NCCCN6)cc5[nH]4)cc3)[nH]c2cc1C1=NCCCN1 [Compound 49]	3.12 (≈ 6.57 µM)	1.56 (≈ 3.29 µM)						
0.78	0.78	N=C(NC1CCCC1)c1ccc2nc(-c3ccc4oc(-c5nc6ccc(C(=N)NC7CCCC7)cc6[nH]5)cc4c3)[nH]c2c1 [Compound 56, 2,5-Bis[2-(5-N-cyclopentylamidino)benzimidazoyl]benzo[b]furan hydrochloride]	0.78	0.78						
1.56	1.56	N=C(NC1CCCC1)c1ccc2nc(-c3ccc(-c4ccc(-c5ccc(-c6nc7ccc(C(=N)NC8CCCC8)cc7[nH]6)cc5)o4)cc3)[nH]c2c1 [Compound 54, 4,4'-Bis[2-(5-N-cyclopentylamidino)benzimidazoyl]-2,5-diphenylfuran hydrochloride]	1.56	6.25						
0.78 (≈ 1.71 µM)	0.39 (≈ 0.854 µM)	N=C(N)c1ccc(OCCCCCOc2ccc(-c3nc4ccc(C(=N)N)cc4[nH]3)cc2)cc1 [Compound 66]	1.56 (≈ 3.42 µM)	6.25 (≈ 13.7 µM)						
25 (≈ 59.2 µM)	25 (≈ 59.2 µM)	Cc1cc(-c2nc3ccc(C(=N)N)cc3[nH]2)c(C)cc1-c1nc2ccc(C(=N)N)cc2[nH]1 [Compound 50]	100 (≈ 237 µM)	25 (≈ 59.2 µM)						
> 100	> 100	CN(CCCNC(=O)c1ccc(-c2ccc(-c3ccc(C(=O)NCCCN(C)c4ccccc4)cc3)o2)cc1)c1ccccc1 [Compound 36]								
